Measured values: US6083981A, “Sulfonamide substituted aspartic acid interleukin-1β converting enzyme inhibitors” (Warner-Lambert Company, priority 1999, dated 2000)
Blank lines part the entries; values can stand above or below the molecule they belong to.

What was measured:
[1] = tested on: human peripheral blood mononuclear cells (PBMCs); assay: PBMC viability (MTT), compound toxicity; assay type: cell-based
Source text: (§1) Further evidence that compounds of Formula I, II, and III are inhibitors of ICE is provided by their ability to inhibit IL-1β production in human peripheral blood mononuclear cells (PBMCs) as described herein. PBMCs are isolated from heparinized blood by centrifugation over a ficoll cushion, then washed three times with phosphate-buffered saline. PBMCs are suspended in a medium containing RPMI 1640 with glutamine, penicillin, streptomycin, and 2% human AB serum, then plated at 10^6 cells per well in 96 well flat bottom plates. PBMCs are stimulated overnight with 10 ng/mL of lipopolysaccharide (LPS, E. Coli strain 0111:B4; Calbiochem) in the presence or absence of a compound of Formula I. Medium is harvested and the level of mature IL-1β was determined using an ELISA kit from R & D Systems. Compound inhibition is assessed by determining the concentration of agent which reduces IL-1β levels by 50%. Cells were cultured for an additional four hours in the presence of 3-(4,5-dimethylthiazol-2-yl)-2,5-diphenyltetrazolium bromide (MTT) to determine viability. Compound toxicity can, therefore, be assessed by determining the concentration of agent which kills 50% of the cells (IC50).

[2] = tested on: IL-1β production in human peripheral blood mononuclear cells (PBMCs); assay: PBMC Cellular Assay, inhibition of LPS-stimulated IL-1β production; assay type: cell-based; conditions: mature IL-1β by ELISA, 10 ng/mL LPS overnight, 2% human AB serum
Source text: as §1

[3] = molecular target: T1, Ich-2 (Caspase-4) (Homo sapiens, UniProt P49662); assay: Ich-2 (Caspase-4) Colorimetric Dose-Response (IC50) Assay; assay type: biochemical; conditions: 64 nM enzyme, 60 μM Ac-Leu-Glu-Val-Asp-pNA
T1 sequence (P49662 81-270 limits assumed): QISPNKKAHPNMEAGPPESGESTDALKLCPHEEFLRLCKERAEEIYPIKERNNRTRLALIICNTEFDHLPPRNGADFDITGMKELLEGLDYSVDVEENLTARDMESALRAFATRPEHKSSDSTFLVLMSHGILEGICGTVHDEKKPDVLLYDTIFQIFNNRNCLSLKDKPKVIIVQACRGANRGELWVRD
T1 sequence (P49662 290-377 limits assumed): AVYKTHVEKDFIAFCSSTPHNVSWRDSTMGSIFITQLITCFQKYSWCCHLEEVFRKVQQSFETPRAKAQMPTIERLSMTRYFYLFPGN
Description: (§2) ICE enzyme is diluted to approximately 24 nM in HGE buffer (100 mM Hepes pH 7.5, 0.5 mM EDTA, 20% glycerol, 0.1% Bovine Serum Albumin (BSA), and activated by adding dithiothreitol (DTT) to a final concentration of 5 mM. The activated enzyme is then aliquoted into wells containing inhibitor or vehicle, and the plate is preincubated for 60 minutes at ambient temperature. Substrate (Ac--Tyr--Val--Ala--Asp--pNA) is added to each well to a final concentration of 50 μM, and plates are placed in the microtitre plate-reader thermostated to 25° C. Beginning 5 minutes after addition of substrate, absorbance (405 nm) of wells is monitored for 1 hour, and activity is calculated as the mean rate of change in absorbance during this interval.
Inhibition of Ich-2 enzyme is assayed as described above for ICE, except that enzyme is used at 64 nM, and 60 μM of the Ich-2-specific substrate Ac--Leu--Glu--Val--Asp--pNA is used instead of the ICE substrate Ac--Tyr--Val--Ala--Asp--pNA.

[4] = molecular target: T2, ICE (Homo sapiens, UniProt P29466); assay: ICE Colorimetric Dose-Response (IC50) Assay; assay type: biochemical; conditions: 24 nM ICE, 60 min preincubation, 50 μM Ac-Tyr-Val-Ala-Asp-pNA, pH 7.5, 25° C
T2 sequence (P29466 120-297 limits assumed): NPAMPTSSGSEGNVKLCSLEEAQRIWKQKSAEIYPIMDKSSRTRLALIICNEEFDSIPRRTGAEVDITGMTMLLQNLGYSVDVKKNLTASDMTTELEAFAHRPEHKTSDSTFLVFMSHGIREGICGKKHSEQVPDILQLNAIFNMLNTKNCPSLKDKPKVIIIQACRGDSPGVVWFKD
T2 sequence (P29466 317-404 limits assumed): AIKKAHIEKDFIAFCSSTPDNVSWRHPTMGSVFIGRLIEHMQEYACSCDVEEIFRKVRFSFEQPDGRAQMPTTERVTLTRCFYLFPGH
Description: Aliquots of each dilution are transferred to a microtitre plate in triplicate.
as §2

[5] = molecular target: T2, ICE; assay: ICE inhibition, fluorometric Ki (Ac-Tyr-Val-Ala-Asp-AMC substrate); assay type: biochemical; conditions: 0.24 nM ICE, 15 μM Ac-Tyr-Val-Ala-Asp-AMC, reversible competitive model
Description: Substrate hydrolysis is monitored for 300 seconds by observing the fluorescence of released AMC using excitation at 380 nm and emission at 460 nm. Mean rates of substrate hydrolysis are evaluated by linear-regression analysis of the fluorescence vs time traces.

[6] = PBMC viability (MTT), compound toxicity; assay type: cell-based; conditions: human, MTT viability, additional four hours, concentration which kills 50% of the cells, read-out: PBMC TC50
Source text: as §1

IC50 [3]: 151 µM
IC50 [4]: 34 µM
Ki [5]: 1.9 µM
Molecule: Cc1cccc(S(=O)(=O)NC(C=O)CC(=O)O)c1-c1ccccc1 (stereo not shown) [Example 37, 3-(6-Methyl-Biphenyl-2-Sulfonylamino)-4-Oxo-Butyric Acid]
CC50 [6]: > 100 µM
IC50 ([2]; PBMC): > 100 µM

IC50 [3]: 76 µM
IC50 [4]: 11.2 µM
Ki [5]: 0.67 µM
Molecule: Cc1cccc(S(=O)(=O)NC(C=O)CC(=O)O)c1Oc1ccccc1 (stereo not shown) [Example 38, 3-(3-Methyl-2-Phenoxy-Benzenesulfonylamino)-4-Oxo-Butyric Acid]
CC50 [6]: > 100 µM
IC50 ([2]; PBMC): 85 µM

IC50 [3]: 25 µM
IC50 [4]: 21 µM
Ki [5]: 1.1 µM
Molecule: O=CC(CC(=O)O)NS(=O)(=O)c1ccccc1Sc1ccccc1 (stereo not shown) [Example 39, 4-Oxo-3-[2-Phenylthio-Benzenesulfonylamino]-Butyric Acid]
CC50 [6]: > 100 µM
IC50 ([2]; PBMC): > 100 µM

IC50 [3]: 370 µM
IC50 [4]: 44 µM
Ki [5]: 10 µM
Molecule: O=CC(CC(=O)O)NS(=O)(=O)c1ccccc1Nc1ccccc1 (stereo not shown) [Example 40, 4-Oxo-3-[2-N-Phenyl-Benzenesulfonylamino]-Butyric Acid]
CC50 [6]: > 100 µM
IC50 ([2]; PBMC): 95 µM

IC50 [3]: 9.2 µM
IC50 [4]: 12 µM
Ki [5]: 1.5 µM
Molecule: Cc1cccc(S(=O)(=O)NC(C=O)CC(=O)O)c1Oc1ccc(C(C)C)cc1 (stereo not shown) [Example 41, 3-[2-(4-Isopropylphenoxy)-3-Methylbenzenesulfonylamino]-4-Oxo-Butyric Acid]
CC50 [6]: > 100 µM
IC50 ([2]; PBMC): 45 µM

IC50 [3]: 57 µM
IC50 [4]: 1.1 µM
Ki [5]: 0.3 µM
Molecule: Cc1ccccc1Oc1c(C)cccc1S(=O)(=O)NC(C=O)CC(=O)O (stereo not shown) [Example 42, 3-[2-(2-Methylphenoxy)-3-Methylbenzenesulfonylamino]-4-Oxo-Butyric Acid]
CC50 [6]: > 100 µM
IC50 ([2]; PBMC): 38 µM

IC50 [3]: 199 µM
IC50 [4]: 41 µM
Ki [5]: 2.2 µM
Molecule: Cc1ccc(Oc2ccccc2)c(S(=O)(=O)NC(C=O)CC(=O)O)c1 (stereo not shown) [Example 44, 3-(5-Methyl-2-Phenoxy-Benzenesulfonylamino)-4-Oxo-Butyric Acid]
CC50 [6]: > 100 µM
IC50 ([2]; PBMC): > 100 µM

IC50 [3]: 14 µM
IC50 [4]: 1.7 µM
Ki [5]: 18 µM
Molecule: Cc1ccc(S(=O)(=O)NC(C=O)CC(=O)O)c(Oc2ccccc2)c1 (stereo not shown) [Example 45, 3-(4-Methyl-2-Phenoxy-Benzenesulfonylamino)-4-Oxo-Butyric Acid]
CC50 [6]: > 100 µM
IC50 ([2]; PBMC): 70 µM

The next lines start with the molecule.

Molecule: 3-(2-Sec-Butoxy-Benzenesulfonylamino)-4-Oxo-Butyric Acid [Example 27]
CC50 [1]: > 100 µM
IC50 [2]: > 100 µM
IC50 [3]: 118 µM
IC50 [4]: 35 µM
Ki [5]: 3.9 µM

Molecule: CCc1ccccc1Oc1ccccc1S(=O)(=O)NC(C=O)CC(=O)O (stereo not shown) [Example 18, 3-[2-(2-Ethyl-Phenoxy)-Benzenesulfonylamino]-4-Oxo-Butyric Acid]
CC50 [6]: > 100 µM
IC50 ([2]; PBMC): 80 µM
IC50 [3]: 87 µM
IC50 [4]: 14 µM
Ki [5]: 2 µM

Molecule: CCC(C)c1ccc(Oc2ccccc2S(=O)(=O)NC(C=O)CC(=O)O)cc1 (stereo not shown) [Example 19, 3-[2-(4-Sec-Butyl-Phenoxy)-Benzenesulfonylamino]-4-Oxo-Butyric Acid]
CC50 [6]: > 100 µM
IC50 ([2]; PBMC): 23 µM
IC50 [3]: 4 µM
IC50 [4]: 2.2 µM
Ki [5]: 0.5 µM

Molecule: O=CC(CC(=O)O)NS(=O)(=O)c1ccccc1Oc1ccc(-c2ccccc2)cc1 (stereo not shown) [Example 20, 3-[2-(Biphenyl-4-Yloxy)-Benzenesulfonylamino]-4-Oxo-Butyric Acid]
CC50 [6]: > 100 µM
IC50 ([2]; PBMC): 40 µM
IC50 [3]: 17 µM
IC50 [4]: 4.4 µM
Ki [5]: 0.3 µM

Molecule: CCCCC(C)c1ccc(Oc2ccccc2S(=O)(=O)NC(C=O)CC(=O)O)cc1 (stereo not shown) [Example 21, 3-{2-[4-(1-Methyl-Pentyl)-Phenoxy]-Benzenesulfonylamino}-4-Oxo-Butyric Acid]
CC50 [6]: 70 µM
IC50 ([2]; PBMC): 33 µM
IC50 [3]: 31 µM
IC50 [4]: 6.1 µM
Ki [5]: 0.6 µM

Molecule: O=CC(CC(=O)O)NS(=O)(=O)c1ccccc1OCc1ccccc1 (stereo not shown) [Example 23, 3-(2-Benzyloxy-Benzenesulfonylamino)-4-Oxo-Butyric Acid]
CC50 [6]: > 100 µM
IC50 ([2]; PBMC): 60 µM
IC50 [3]: 97 µM
IC50 [4]: 11 µM
Ki [5]: 0.8 µM

Molecule: Cc1cccc(Oc2ccccc2S(=O)(=O)NC(C=O)CC(=O)O)c1C (stereo not shown) [Example 24, 3-[2-(2,3-Dimethyl-Phenoxy)-Benzenesulfonylamino]-4-Oxo-Butyric Acid]
CC50 [6]: > 100 µM
IC50 ([2]; PBMC): 73 µM
IC50 [3]: 122 µM
IC50 [4]: 13 µM
Ki [5]: 1 µM

Molecule: CCC(C)c1ccc(Oc2ccccc2S(=O)(=O)NC(C=O)CC(=O)O)cc1C (stereo not shown) [Example 28, 3-[2-(4-Sec-Butyl-3-Methyl-Phenoxy)-Benzenesulfonylamino]-4-Oxo-Butyric Acid]
CC50 [6]: > 100 µM
IC50 ([2]; PBMC): 18 µM
IC50 [3]: 4.6 µM
IC50 [4]: 1 µM
Ki [5]: 0.1 µM

Molecule: CCC(CC)COc1ccccc1S(=O)(=O)NC(C=O)CC(=O)O (stereo not shown) [Example 29]
CC50 [6]: > 100 µM
IC50 ([2]; PBMC): 75 µM
IC50 [3]: 215 µM
IC50 [4]: 8.6 µM
Ki [5]: 0.3 µM

Molecule: O=CC(CC(=O)O)NS(=O)(=O)c1ccccc1OCCc1cccc2ccccc12 (stereo not shown) [Example 31]
CC50 [6]: > 100 µM
IC50 ([2]; PBMC): 8 µM
IC50 [3]: 2.3 µM
IC50 [4]: 0.4 µM
Ki [5]: 0.062 µM

Molecule: Cc1cccc(-c2ccccc2S(=O)(=O)NC(C=O)CC(=O)O)c1 (stereo not shown) [Example 35, 3-(3'-Methyl-Biphenyl-2-Sulfonylamino)-4-Oxo-Butyric Acid]
CC50 [6]: > 100 µM
IC50 ([2]; PBMC): > 100 µM
IC50 [3]: 341 µM
IC50 [4]: 37 µM
Ki [5]: 31 µM

Molecule: O=CC(CC(=O)O)NS(=O)(=O)c1ccccc1Oc1ccc2ccccc2c1 (stereo not shown) [Example 36, 3-[2-(Naphthalen-2-Yloxy)-Benzenesulfonylamino]-4-Oxo-Butyric Acid]
CC50 [6]: > 100 µM
IC50 ([2]; PBMC): 50 µM
IC50 [3]: 28 µM
IC50 [4]: 3.5 µM
Ki [5]: 0.13 µM
